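The compound was tested at five concentrations on cells cultured in 96-well plates, with a 48-hour exposure period. At the GI50, growth is halved. TGI: concentration producing complete growth inhibition.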
Legend:
Assay in all cases: growth of human tumour cells (NCI), 48 h
[1] = test system: SF-295 CNS
[2] = test system: HCT-15 colon
[3] = test system: 786-0 renal
[4] = test system: HOP-62 NSCLC
[5] = test system: NCI-H226 lung
[6] = test system: MDA-MB-231 breast
[7] = test system: SK-MEL-28 melanoma
[8] = test system: SN12C renal
[9] = test system: OVCAR-3 ovarian
[10] = test system: A498 renal
[11] = test system: KM12 colon
[12] = test system: BT-549 breast
[13] = test system: T-47D breast
[14] = test system: MCF7 breast
[15] = test system: U251 CNS
[16] = test system: SW-620 colon
[17] = test system: A549 NSCLC
[18] = test system: EKVX NSCLC
[19] = test system: HT29 colon
[20] = test system: ACHN renal
[21] = test system: CAKI-1 renal
[22] = test system: HCC-2998 colon
[23] = test system: OVCAR-8 ovarian
[24] = test system: NCI/ADR-RES ovarian
[25] = test system: M14 melanoma
[26] = test system: SNB-75 CNS
[27] = test system: HL-60(TB) leukemia
[28] = test system: SNB-19 CNS
[29] = test system: OVCAR-5 ovarian
[30] = test system: SK-MEL-5 melanoma
[31] = test system: RXF 393 renal
[32] = test system: PC-3 prostate
[33] = test system: SF-268 CNS
[34] = test system: NCI-H522 lung
[35] = test system: SR leukemia
[36] = test system: COLO 205 colon
[37] = test system: SF-539 CNS
[38] = test system: MALME-3M melanoma
[39] = test system: K-562 leukemia
[40] = test system: MDA-MB-435
[41] = test system: DU-145 prostate
[42] = test system: HS 578T breast
[43] = test system: NCI-H460 lung
[44] = test system: UACC-62 melanoma
[45] = test system: SK-MEL-2 melanoma
[46] = test system: TK-10 renal
[47] = test system: NCI-H23 lung
[48] = test system: CCRF-CEM leukemia
[49] = test system: OVCAR-4 ovarian
[50] = test system: RPMI-8226 leukemia
[51] = test system: HCT-116 colon
[52] = test system: LOX IMVI melanoma
[53] = test system: UACC-257 melanoma
[54] = test system: HOP-92 NSCLC
[55] = test system: SK-OV-3 ovarian
[56] = test system: IGROV1 ovarian
[57] = test system: UO-31 renal
[58] = test system: MOLT-4 leukemia

Molecule `Cc1ccc(NSc2ccccc2[N+](=O)[O-])cc1` has a GI50 [1] of 0.889 µM, a TGI [1] of 9.18 µM and a GI50 [2] of 0.155 µM. It also gave a TGI [2] of 14.2 µM, a GI50 [3] of 1.5 µM and a TGI [3] of 16.3 µM. For the same molecule, the GI50 [4] was 0.283 µM, the TGI [4] was 18.8 µM and the GI50 [5] was 4.04 µM. For the same molecule, the TGI [5] was 20.8 µM, the GI50 [6] was 1.06 µM and the TGI [6] was 15.5 µM. For the same molecule, the GI50 [7] was 7.71 µM, the TGI [7] was 26.4 µM and the GI50 [8] was 1.3 µM. It also gave a TGI [8] of 21.1 µM, a GI50 [9] of 0.503 µM and a TGI [9] of 7.4 µM. For the same molecule, the GI50 [10] was 0.186 µM, the TGI [10] was 3.75 µM and the GI50 [11] was 0.141 µM. It also gave a TGI [11] of 12.5 µM, a GI50 [12] of 2.21 µM and a TGI [12] of 23 µM. For the same molecule, the GI50 [13] was 0.444 µM, the TGI [13] was 40.4 µM and the GI50 [14] was 0.133 µM. For the same molecule, the TGI [14] was 16.2 µM, the GI50 [15] was 0.768 µM and the TGI [15] was 16.3 µM. The GI50 [16] was 0.137 µM, the TGI [16] was 16.2 µM and the GI50 [17] was 0.951 µM. It also gave a TGI [17] of 17.1 µM, a GI50 [18] of 2.89 µM and a TGI [18] of 22.4 µM. The GI50 [19] was 0.117 µM, the TGI [19] was 12.3 µM and the GI50 [20] was 2.3 µM. The TGI [20] was 23.4 µM, the GI50 [21] was 1.36 µM and the TGI [21] was 25.3 µM. For the same molecule, the GI50 [22] was 1.82 µM, the TGI [22] was 10.6 µM and the GI50 [23] was 2.91 µM. The TGI [23] was 36.3 µM, the GI50 [24] was 0.148 µM and the TGI [24] was 14.3 µM. The GI50 [25] was 0.146 µM, the TGI [25] was 15.3 µM and the GI50 [26] was 0.557 µM. For the same molecule, the TGI [26] was 9.32 µM, the GI50 [27] was 0.368 µM and the TGI [27] was 14.5 µM. The GI50 [28] was 1.22 µM, the TGI [28] was 19.6 µM and the GI50 [29] was 3.42 µM. For the same molecule, the TGI [29] was 20.9 µM, the GI50 [30] was 0.152 µM and the TGI [30] was 13.6 µM. It also gave a GI50 [31] of 0.868 µM, a TGI [31] of 5.27 µM and a GI50 [32] of 1.29 µM. For the same molecule, the TGI [32] was 16.6 µM, the GI50 [33] was 1.15 µM and the TGI [33] was 19.7 µM. The GI50 [34] was 0.435 µM, the TGI [34] was 13.4 µM and the GI50 [35] was 0.113 µM. For the same molecule, the TGI [35] was 36 µM, the GI50 [36] was 0.149 µM and the TGI [36] was 3.44 µM. For the same molecule, the GI50 [37] was 0.847 µM, the TGI [37] was 5.11 µM and the GI50 [38] was 3.21 µM. For the same molecule, the TGI [38] was 28.9 µM, the GI50 [39] was 0.125 µM and the TGI [39] was 22.9 µM. The GI50 [40] was 0.0678 µM, the TGI [40] was 0.171 µM and the GI50 [41] was 0.984 µM. For the same molecule, the TGI [41] was 15.3 µM, the GI50 [42] was 0.921 µM and the TGI [42] was 13.8 µM. For the same molecule, the GI50 [43] was 0.432 µM, the TGI [43] was 11.1 µM and the GI50 [44] was 0.157 µM. It also gave a TGI [44] of 17 µM, a GI50 [45] of 1.17 µM and a TGI [45] of 21.9 µM. For the same molecule, the GI50 [46] was 10.4 µM, the TGI [46] was 25.4 µM and the GI50 [47] was 1.58 µM. The TGI [47] was 22.6 µM, the GI50 [48] was 0.85 µM and the TGI [48] was greater than 52.2 µM. For the same molecule, the GI50 [49] was 6.26 µM, the TGI [49] was 23.2 µM and the GI50 [50] was 0.925 µM. The TGI [50] was 52.3 µM, the GI50 [51] was 0.48 µM and the TGI [51] was 12.1 µM. For the same molecule, the GI50 [52] was 0.912 µM, the TGI [52] was 18.5 µM and the GI50 [53] was 17.4 µM. The TGI [53] was 36.7 µM, the GI50 [54] was 0.502 µM and the TGI [54] was 13.7 µM. It also gave a GI50 [55] of 1.06 µM, a TGI [55] of 20.1 µM and a GI50 [56] of 1.25 µM. It also gave a TGI [56] of 28.2 µM, a GI50 [57] of 2.07 µM and a TGI [57] of 16 µM. For the same molecule, the GI50 [58] was 0.208 µM and the TGI [58] was greater than 62.7 µM.

Work on `Cc1cc(NCCCCNc2ccnc3cc(Cl)ccc23)nc(Nc2ccc(C(=O)N3CCCC3)cc2)n1` yielded a GI50 [1] of 1.78 µM, a TGI [1] of 3.64 µM and a GI50 [2] of 2.28 µM. It also gave a TGI [2] of 6.75 µM, a GI50 [3] of 1.57 µM and a TGI [3] of 3.02 µM. The GI50 [4] was 2.21 µM, the TGI [4] was 4.74 µM and the GI50 [5] was 5.13 µM. It also gave a TGI [5] of 18.2 µM, a GI50 [6] of 2.14 µM and a TGI [6] of 5.12 µM. The GI50 [7] was 2 µM, the TGI [7] was 4.12 µM and the GI50 [8] was 2.85 µM. The TGI [8] was 11.4 µM, the GI50 [9] was 1.78 µM and the TGI [9] was 3.81 µM. The GI50 [10] was 1.51 µM, the TGI [10] was 7.09 µM and the GI50 [11] was 3 µM. For the same molecule, the TGI [11] was 11.3 µM, the GI50 [12] was 1.83 µM and the TGI [12] was 4.38 µM. It also gave a GI50 [13] of 2.64 µM, a TGI [13] of 6.76 µM and a GI50 [14] of 1.72 µM. For the same molecule, the TGI [14] was 5.02 µM, the GI50 [15] was 2.08 µM and the TGI [15] was 4.8 µM. It also gave a GI50 [16] of 1.7 µM, a TGI [16] of 3.5 µM and a GI50 [17] of 3.29 µM. For the same molecule, the TGI [17] was 10.7 µM, the GI50 [18] was 4.28 µM and the TGI [18] was 15.6 µM. The GI50 [19] was 2.37 µM, the TGI [19] was 7.8 µM and the GI50 [20] was 3.6 µM. It also gave a TGI [20] of 11.3 µM, a GI50 [21] of 2.06 µM and a TGI [21] of 5.6 µM. For the same molecule, the GI50 [22] was 2.99 µM, the TGI [22] was 8.36 µM and the GI50 [23] was 3.14 µM. It also gave a TGI [23] of 11.2 µM, a GI50 [24] of 16.4 µM and a TGI [24] of 72.8 µM. The GI50 [25] was 1.96 µM, the TGI [25] was 3.87 µM and the GI50 [26] was 1.91 µM. The TGI [26] was 3.76 µM, the GI50 [27] was 0.202 µM and the TGI [27] was 2.27 µM. For the same molecule, the GI50 [28] was 4.5 µM, the TGI [28] was 18.1 µM and the GI50 [29] was 4.29 µM. The TGI [29] was 18 µM, the GI50 [30] was 1.7 µM and the TGI [30] was 3.13 µM. The GI50 [31] was 1.47 µM, the TGI [31] was 3.08 µM and the GI50 [32] was 3.79 µM. The TGI [32] was 10.9 µM, the GI50 [33] was 2.1 µM and the TGI [33] was 6.21 µM. It also gave a GI50 [34] of 2.16 µM, a TGI [34] of 4.87 µM and a GI50 [35] of 0.267 µM. It also gave a TGI [35] of 1.37 µM, a GI50 [36] of 1.81 µM and a TGI [36] of 3.56 µM. It also gave a GI50 [37] of 1.74 µM, a TGI [37] of 3.54 µM and a GI50 [38] of 1.89 µM. The TGI [38] was 4.17 µM, the GI50 [39] was 0.306 µM and the TGI [39] was 2.33 µM. For the same molecule, the GI50 [40] was 1.79 µM, the TGI [40] was 3.35 µM and the GI50 [41] was 3.49 µM. For the same molecule, the TGI [41] was 13.4 µM, the GI50 [42] was 1.85 µM and the TGI [42] was 4.74 µM. It also gave a GI50 [43] of 1.96 µM, a TGI [43] of 4.98 µM and a GI50 [45] of 2.18 µM. For the same molecule, the TGI [45] was 4.27 µM, the GI50 [46] was 1.84 µM and the TGI [46] was 4.25 µM. For the same molecule, the GI50 [47] was 3.7 µM, the TGI [47] was 15.8 µM and the GI50 [48] was 2.86 µM. The TGI [48] was greater than 100 µM, the GI50 [49] was 2.32 µM and the TGI [49] was 11 µM. It also gave a GI50 [50] of 1.34 µM, a TGI [50] of 5.3 µM and a GI50 [51] of 1.59 µM. For the same molecule, the TGI [51] was 3.55 µM, the GI50 [52] was 1.48 µM and the TGI [52] was 3.05 µM. It also gave a GI50 [53] of 2.09 µM, a TGI [53] of 4.19 µM and a GI50 [54] of 1.58 µM. The TGI [54] was 3.7 µM, the GI50 [55] was 3.49 µM and the TGI [55] was 9.11 µM. It also gave a GI50 [56] of 3.58 µM, a TGI [56] of 13.4 µM and a GI50 [57] of 1.73 µM. It also gave a TGI [57] of 4.16 µM, a GI50 [58] of 2.81 µM and a TGI [58] of 11.6 µM.
